# Laboratory results reported in ChEMBL document CHEMBL1146125, “Ultra-potent P1 modified arylsulfonamide HIV protease inhibitors: the discovery of GW0385” (Bioorg Med Chem Lett, 2006).
# pIC50: −log10 of the molar value.
# Assays:
# [1] = Oral bioavailability in rat at 1 mg/kg; type: ADME, organism-based; conditions: in vivo
# [2] = Half life in rat at 1 mg/kg; type: ADME, organism-based; parameters: dose 1 mg/kg; conditions: in vivo
# [3] = Clearance in rat at 1 mg/kg, iv; type: ADME, organism-based; parameters: dose 1 mg/kg, route intravenous; conditions: in vivo
# MT4 [4] = test: Antiviral activity against HIV1 EP13 in MT4 cells; type: functional, cell-based; conditions: Homo sapiens
# MT4 [5] = test: Antiviral activity against HIV D545701 in MT4 cells; type: functional, cell-based; conditions: Homo sapiens
# MT4 [6] = test: Antiviral activity against HIV1 HXB2 in MT4 cells; type: functional, cell-based; conditions: Homo sapiens
# MT4 [7] = test: Antiviral activity against HIV1 I54V in MT4 cells; type: functional, cell-based; conditions: Homo sapiens
# MT4 [8] = test: Antiviral activity against multi PI resistant HIV1 EP14 in MT4 cells; type: functional, cell-based; conditions: Homo sapiens
# [9] = Half life in dog at 1 mg/kg co-administered with 4 mg/kg ritonavir; type: ADME, organism-based, Canis lupus familiaris; conditions: in vivo
# MT4 [10] = test: Antiviral activity against HIV1 I50V in MT4 cells; type: functional, cell-based; conditions: Homo sapiens
# [11] = Bioavailability in dog at 1 mg/kg co-administered with 4 mg/kg ritonavir; type: ADME, organism-based, Canis lupus familiaris; conditions: in vivo
# MT4 [12] = test: Antiviral activity against multi PI resistant HIV1 31246 in MT4 cells; type: functional, cell-based; conditions: Homo sapiens
# [13] = Oral bioavailability in dog at 1 mg/kg; type: ADME, organism-based, Canis lupus familiaris; conditions: in vivo
# [14] = Clearance in dog at 1 mg/kg, iv; type: ADME, organism-based, Canis lupus familiaris; parameters: dose 1 mg/kg, route intravenous; conditions: in vivo
# MT4 [15] = test: Antiviral activity against nelfinavir resistant HIV1 14330 in MT4 cells; type: functional, cell-based; conditions: Homo sapiens
# [16] = Bioavailability in rat at 1 mg/kg co-administered with 4 mg/kg ritonavir; type: ADME, organism-based; conditions: in vivo
# MT4 [17] = test: Antiviral activity against amprenavir resistant HIV1 468 in MT4 cells; type: functional, cell-based; conditions: Homo sapiens
# [18] = Half life in dog at 1 mg/kg; type: ADME, organism-based, Canis lupus familiaris; parameters: dose 1 mg/kg; conditions: in vivo
# MT4 [19] = test: Antiviral activity against triple multi PI resistant HIV1 in MT4 cells; type: functional, cell-based; conditions: Homo sapiens
# MT4 [20] = test: Antiviral activity against indinavir resistant HIV1 30813 in MT4 cells; type: functional, cell-based; conditions: Homo sapiens
# [21] = Half life in rat at 1 mg/kg co-administered with 4 mg/kg ritonavir; type: ADME, organism-based; conditions: in vivo
Compound,pIC50 (MT4 [4]),pIC50 (MT4 [5]),pIC50 (MT4 [6]),further results
CC(C)CN(C[C@@H](O)[C@H](Cc1ccc(OCc2ccccn2)cc1)NC(=O)O[C@H]1CO[C@H]2OCC[C@H]21)S(=O)(=O)c1ccc2c(c1)OCO2,8.92,8.35,8.92,bioavailability [1]: 21%; half-life [2]: 0.91 h; clearance [3]: 20 mL/min/kg
CC(C)CN(C[C@@H](O)[C@H](Cc1ccccc1)NC(=O)O[C@H]1CO[C@H]2OCC[C@H]21)S(=O)(=O)c1ccc(N)cc1,8.17,7.49,8.41,
CC(C)CN(C[C@@H](O)[C@H](Cc1ccc(OCCc2ccsc2)cc1)NC(=O)O[C@H]1CO[C@H]2OCC[C@H]21)S(=O)(=O)c1ccc2c(c1)OCO2,7.77,7.36,8.02,
COc1ccc(Oc2ccc(C[C@H](NC(=O)O[C@H]3CO[C@H]4OCC[C@H]43)[C@H](O)CN(CC(C)C)S(=O)(=O)c3ccc4c(c3)OCO4)cc2)cc1,8.16,7.57,8.68,
Cc1nc(COc2ccc(C[C@H](NC(=O)O[C@H]3CO[C@H]4OCC[C@H]43)[C@H](O)CN(CC(C)C)S(=O)(=O)c3ccc4c(c3)OCO4)cc2)cs1 [BRECANAVIR],8.96,,,pIC50 (MT4 [7]): 9.66; pIC50 (MT4 [8]): 9.11; half-life [9]: 1.2 h; pIC50 (MT4 [10]): 8.80; bioavailability [11]: 86%; bioavailability [1]: 10%; pIC50 (MT4 [12]): 8.77; bioavailability [13]: 20%; half-life [2]: 1.4 h; clearance [3]: 10 mL/min/kg; clearance [14]: 19 mL/min/kg; pIC50 (MT4 [15]): 9.35; bioavailability [16]: 62%; pIC50 (MT4 [17]): 8.09; half-life [18]: 0.87 h; pIC50 (MT4 [19]): 8.27; pIC50 (MT4 [20]): 9.34; half-life [21]: 1.1 h
CC(C)CN(C[C@@H](O)[C@H](Cc1ccc(Oc2ccncn2)cc1)NC(=O)O[C@H]1CO[C@H]2OCC[C@H]21)S(=O)(=O)c1ccc2c(c1)OCO2,8.55,7.96,8.70,
CC(C)CN(C[C@@H](O)[C@H](Cc1ccc(Oc2ccc(CN3CCOCC3)cc2)cc1)NC(=O)O[C@H]1CO[C@H]2OCC[C@H]21)S(=O)(=O)c1ccc2c(c1)OCO2,8.54,7.89,8.92,
CC(C)CN(C[C@@H](O)[C@H](Cc1ccc(OCc2nccs2)cc1)NC(=O)O[C@H]1CO[C@H]2OCC[C@H]21)S(=O)(=O)c1ccc2c(c1)OCO2,8.82,8.29,9.05,
CC(=O)NCc1ccc(Oc2ccc(C[C@H](NC(=O)O[C@H]3CO[C@H]4OCC[C@H]43)[C@H](O)CN(CC(C)C)S(=O)(=O)c3ccc4c(c3)OCO4)cc2)cc1,8.47,8.20,8.21,
CC(C)CN(C[C@@H](O)[C@H](Cc1ccc(OCc2ccc3ccccc3c2)cc1)NC(=O)O[C@H]1CO[C@H]2OCC[C@H]21)S(=O)(=O)c1ccc2c(c1)OCO2,7.52,7.23,7.96,
CC(C)CN(C[C@@H](O)[C@H](Cc1ccc(Oc2ccc(CN3CCCC3)cc2)cc1)NC(=O)O[C@H]1CO[C@H]2OCC[C@H]21)S(=O)(=O)c1ccc2c(c1)OCO2,8.34,7.72,8.55,
CC(C)CN(C[C@@H](O)[C@H](Cc1ccc(Oc2ccc(F)cc2)cc1)NC(=O)O[C@H]1CO[C@H]2OCC[C@H]21)S(=O)(=O)c1ccc2c(c1)OCO2,8.09,7.54,8.48,
CC(C)CN(C[C@@H](O)[C@H](Cc1ccc(OCc2ccccc2)cc1)NC(=O)O[C@H]1CO[C@H]2OCC[C@H]21)S(=O)(=O)c1ccc2c(c1)OCO2,8.23,8.02,8.51,
CC(C)CN(C[C@@H](O)[C@H](Cc1ccc(Oc2ccc(CO)cc2)cc1)NC(=O)O[C@H]1CO[C@H]2OCC[C@H]21)S(=O)(=O)c1ccc2c(c1)OCO2,8.80,8.08,8.80,
CC(C)CN(C[C@@H](O)[C@H](Cc1ccc(OCCn2cncn2)cc1)NC(=O)O[C@H]1CO[C@H]2OCC[C@H]21)S(=O)(=O)c1ccc2c(c1)OCO2,8.08,7.92,7.68,
CC(C)CN(C[C@@H](O)[C@H](Cc1ccc(Oc2cccnc2)cc1)NC(=O)O[C@H]1CO[C@H]2OCC[C@H]21)S(=O)(=O)c1ccc2c(c1)OCO2,8.62,8.02,8.96,
CC(C)CN(C[C@@H](O)[C@H](Cc1ccc(Oc2ccccc2)cc1)NC(=O)O[C@H]1CO[C@H]2OCC[C@H]21)S(=O)(=O)c1ccc2c(c1)OCO2,7.68,7.21,8.12,

Compound,pIC50 (MT4 [4]),pIC50 (MT4 [5]),pIC50 (MT4 [6]),further results
CC(C)CN(C[C@@H](O)[C@H](Cc1ccc(OCc2ccc3ccccc3n2)cc1)NC(=O)O[C@H]1CO[C@H]2OCC[C@H]21)S(=O)(=O)c1ccc2c(c1)OCO2,8.28,7.72,8.60,
CC(C)c1nc(CN(C)C(=O)N[C@H](C(=O)N[C@@H](Cc2ccccc2)C[C@H](O)[C@H](Cc2ccccc2)NC(=O)OCc2cncs2)C(C)C)cs1 [RITONAVIR],< 6.00,< 6.00,6.57,
CC(C)CN(C[C@@H](O)[C@H](Cc1ccc(OCc2cscn2)cc1)NC(=O)O[C@H]1CO[C@H]2OCC[C@H]21)S(=O)(=O)c1ccc2c(c1)OCO2,8.92,8.46,9.22,
CC(C)CN(C[C@@H](O)[C@H](Cc1ccc(OCc2cncs2)cc1)NC(=O)O[C@H]1CO[C@H]2OCC[C@H]21)S(=O)(=O)c1ccc2c(c1)OCO2,8.60,8.19,8.72,
COC(=O)NCc1ccc(Oc2ccc(C[C@H](NC(=O)O[C@H]3CO[C@H]4OCC[C@H]43)[C@H](O)CN(CC(C)C)S(=O)(=O)c3ccc4c(c3)OCO4)cc2)cc1,8.66,8.17,8.89,
CC(C)CN(C[C@@H](O)[C@H](Cc1ccc(OCc2cccc(C#N)c2)cc1)NC(=O)O[C@H]1CO[C@H]2OCC[C@H]21)S(=O)(=O)c1ccc2c(c1)OCO2,8.66,8.66,8.92,
CC(C)CN(C[C@@H](O)[C@H](Cc1ccccc1)NC(=O)O[C@H]1CCOC1)S(=O)(=O)c1ccc(N)cc1,,< 6.00,,
CC(C)CN(C[C@@H](O)[C@H](Cc1ccc(OCCc2cccs2)cc1)NC(=O)O[C@H]1CO[C@H]2OCC[C@H]21)S(=O)(=O)c1ccc2c(c1)OCO2,8.47,7.96,8.64,bioavailability [1]: 15%; bioavailability [13]: 18%; half-life [2]: 2.2 h; clearance [3]: 27 mL/min/kg; clearance [14]: 22 mL/min/kg; half-life [18]: 0.5 h
COC(=O)N[C@H](C(=O)N[C@@H](Cc1ccccc1)[C@@H](O)CN(Cc1ccc(-c2ccccn2)cc1)NC(=O)[C@@H](NC(=O)OC)C(C)(C)C)C(C)(C)C [ATAZANAVIR],7.03,7.15,7.60,
CC(C)(C)NC(=O)[C@@H]1C[C@@H]2CCCC[C@@H]2CN1C[C@@H](O)[C@H](Cc1ccccc1)NC(=O)[C@H](CC(N)=O)NC(=O)c1ccc2ccccc2n1,7.10,6.22,7.22,
COc1cccc(Oc2ccc(C[C@H](NC(=O)O[C@H]3CO[C@H]4OCC[C@H]43)[C@H](O)CN(CC(C)C)S(=O)(=O)c3ccc4c(c3)OCO4)cc2)c1,7.80,7.39,8.33,
CC(C)CN(C[C@@H](O)[C@H](Cc1ccc(OCCc2ccccc2)cc1)NC(=O)O[C@H]1CO[C@H]2OCC[C@H]21)S(=O)(=O)c1ccc2c(c1)OCO2,8.06,7.60,8.43,
CC(C)CN(C[C@@H](O)[C@H](Cc1ccc(Oc2cccc(F)c2)cc1)NC(=O)O[C@H]1CO[C@H]2OCC[C@H]21)S(=O)(=O)c1ccc2c(c1)OCO2,7.77,7.32,8.24,
CC(C)CN(C[C@@H](O)[C@H](Cc1ccc(OCc2ncc[nH]2)cc1)NC(=O)O[C@H]1CO[C@H]2OCC[C@H]21)S(=O)(=O)c1ccc2c(c1)OCO2,7.70,7.80,7.16,
Cc1c(O)cccc1C(=O)N[C@@H](CSc1ccccc1)[C@H](O)CN1C[C@H]2CCCC[C@H]2C[C@H]1C(=O)NC(C)(C)C,,< 6.00,,
CC(C)CN(C[C@@H](O)[C@H](Cc1ccc(Oc2ccc(CNS(C)(=O)=O)cc2)cc1)NC(=O)O[C@H]1CO[C@H]2OCC[C@H]21)S(=O)(=O)c1ccc2c(c1)OCO2,8.28,7.96,8.14,
Cc1cccc(C)c1OCC(=O)N[C@@H](Cc1ccccc1)[C@@H](O)C[C@H](Cc1ccccc1)NC(=O)[C@H](C(C)C)N1CCCNC1=O [LOPINAVIR],6.40,< 6.00,7.40,
